Experimental data as given in ChEMBL document CHEMBL1275355, “Molecular modeling study on potent and selective adenosine A(3) receptor agonists” (Bioorg Med Chem, 2010).

Columns and labels:
[1] = molecular target: Adenosine receptors; A1 & A3 (Homo sapiens) (UniProt P30542+P0DMS8); assay: Selectivity ratio of Ki for human adenosine A1 receptor to Ki for human adenosine A3 receptor
[2] = organism: Homo sapiens; assay: Selectivity ratio of Ki for human adenosine A2A receptor to Ki for human adenosine A3 receptor
[3] = molecular target: T1, Adenosine receptor A3 (Homo sapiens, UniProt P0DMS8); assay: Binding affinity to human adenosine A3 receptor
T1 sequence (P0DMS8 whole entry): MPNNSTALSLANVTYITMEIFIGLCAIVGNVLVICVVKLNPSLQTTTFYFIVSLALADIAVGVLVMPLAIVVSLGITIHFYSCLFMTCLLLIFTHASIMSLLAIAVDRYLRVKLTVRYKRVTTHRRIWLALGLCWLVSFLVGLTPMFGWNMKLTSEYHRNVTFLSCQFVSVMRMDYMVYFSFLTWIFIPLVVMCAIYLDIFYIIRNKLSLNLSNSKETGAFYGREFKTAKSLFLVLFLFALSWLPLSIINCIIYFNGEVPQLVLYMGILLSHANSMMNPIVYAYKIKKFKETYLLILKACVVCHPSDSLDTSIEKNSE

[4] = molecular target: T2, Adenosine receptor A1 (Homo sapiens, UniProt P30542); assay: Binding affinity to human adenosine A1 receptor
T2 sequence (P30542 whole entry): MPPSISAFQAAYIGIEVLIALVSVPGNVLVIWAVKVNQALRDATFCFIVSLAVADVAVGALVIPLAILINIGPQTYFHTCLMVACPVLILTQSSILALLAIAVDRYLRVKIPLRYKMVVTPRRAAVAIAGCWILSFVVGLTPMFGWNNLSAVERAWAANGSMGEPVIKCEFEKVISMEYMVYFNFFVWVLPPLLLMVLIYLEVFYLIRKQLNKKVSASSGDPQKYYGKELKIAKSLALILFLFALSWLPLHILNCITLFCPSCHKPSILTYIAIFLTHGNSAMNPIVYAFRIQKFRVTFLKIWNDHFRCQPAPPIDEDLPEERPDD

[5] = molecular target: Adenosine receptor A2a (Homo sapiens, UniProt P29274); assay: Binding affinity to human adenosine A2A receptor
Sequence of Adenosine receptor A2a (P29274 whole entry): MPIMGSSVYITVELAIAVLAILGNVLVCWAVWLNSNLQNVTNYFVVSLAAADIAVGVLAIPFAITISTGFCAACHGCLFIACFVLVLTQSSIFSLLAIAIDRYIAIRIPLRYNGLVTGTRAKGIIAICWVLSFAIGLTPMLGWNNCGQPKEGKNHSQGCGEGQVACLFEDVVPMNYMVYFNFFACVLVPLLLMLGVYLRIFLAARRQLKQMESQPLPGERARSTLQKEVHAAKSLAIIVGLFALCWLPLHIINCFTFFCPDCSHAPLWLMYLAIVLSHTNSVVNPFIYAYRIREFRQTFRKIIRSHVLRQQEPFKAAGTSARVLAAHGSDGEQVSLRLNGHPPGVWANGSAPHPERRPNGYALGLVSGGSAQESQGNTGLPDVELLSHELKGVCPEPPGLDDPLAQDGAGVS

Row | Compound | Ratio Ki [1] | Ratio Ki [2] | Ki ([3]; read-out: pKi (converted)) [nM] | Ki [4] [nM] | Ki [5] [nM] | Ki ([3]; read-out: Ki) [nM]
1 | CNC(=O)[C@H]1O[C@@H](n2cnc3c(NC)nc(C#Cc4ccccn4)nc32)[C@H](O)[C@@H]1O | 21800 | 60800 | – | – | – | –
2 | CONc1nc(C#Cc2ccccc2)nc2c1ncn2[C@@H]1O[C@H](CO)[C@@H](O)[C@H]1O | – | – | 3.98 | – | – | –
3 | CNC(=O)[C@H]1O[C@@H](n2cnc3c(NC)nc(C#Cc4ccc(C(C)=O)cc4)nc32)[C@H](O)[C@@H]1O | 30900 | 21300 | 0.331 | – | – | –

The next lines start with the values.

Row | Ratio Ki [1] | Ratio Ki [2] | Ki ([3]; read-out: pKi (converted)) [nM] | Ki [4] [nM] | Ki [5] [nM] | Ki ([3]; read-out: Ki) [nM] | Compound
4 | 12400 | 29500 | – | – | – | – | CNC(=O)[C@H]1O[C@@H](n2cnc3c(NC)nc(C#Cc4ccc(F)cc4)nc32)[C@H](O)[C@@H]1O
5 | – | – | – | 3920 | 1760 | 7.3 | CNC(=O)[C@H]1O[C@@H](n2cnc3c(N)nc(C#Cc4ccccc4)nc32)[C@H](O)[C@@H]1O
6 | 85 | 115 | – | – | – | – | CNC(=O)[C@H]1O[C@@H](n2cnc3c(NC)nc(C#Cc4ccccc4)nc32)[C@H](O)[C@@H]1O
